Measured values as given in patent US6765022B2, “Cyclohexylamine derivatives as subtype selective nmda receptor antagonists” (Warner-Lambert Company, priority 2000, dated 2004).
pIC50: −log10 of the molar value. Where a name gives a salt, the structure may show the parent alone.

How the values were obtained:
NR1A/NR2B = biological target: T1, NR1A/NR2B (Rattus norvegicus, UniProt P35439+Q00960); assay: Electrophysiological assay at NMDA receptor subunits expressed in Xenopus oocytes (two-electrode voltage clamp); format: cell-based; conditions: cloned rat NR1A/NR2B in Xenopus oocytes; currents activated by glutamate (100 μM) and glycine (1-100 μM); read-out: NR1A/NR2B Oocyte IC50
T1 construct: expressed in transfected cells; host or cells: Xenopus laevis oocytes injected with cRNA
T1 sequence (Q00960 27-1482, other chains not shown): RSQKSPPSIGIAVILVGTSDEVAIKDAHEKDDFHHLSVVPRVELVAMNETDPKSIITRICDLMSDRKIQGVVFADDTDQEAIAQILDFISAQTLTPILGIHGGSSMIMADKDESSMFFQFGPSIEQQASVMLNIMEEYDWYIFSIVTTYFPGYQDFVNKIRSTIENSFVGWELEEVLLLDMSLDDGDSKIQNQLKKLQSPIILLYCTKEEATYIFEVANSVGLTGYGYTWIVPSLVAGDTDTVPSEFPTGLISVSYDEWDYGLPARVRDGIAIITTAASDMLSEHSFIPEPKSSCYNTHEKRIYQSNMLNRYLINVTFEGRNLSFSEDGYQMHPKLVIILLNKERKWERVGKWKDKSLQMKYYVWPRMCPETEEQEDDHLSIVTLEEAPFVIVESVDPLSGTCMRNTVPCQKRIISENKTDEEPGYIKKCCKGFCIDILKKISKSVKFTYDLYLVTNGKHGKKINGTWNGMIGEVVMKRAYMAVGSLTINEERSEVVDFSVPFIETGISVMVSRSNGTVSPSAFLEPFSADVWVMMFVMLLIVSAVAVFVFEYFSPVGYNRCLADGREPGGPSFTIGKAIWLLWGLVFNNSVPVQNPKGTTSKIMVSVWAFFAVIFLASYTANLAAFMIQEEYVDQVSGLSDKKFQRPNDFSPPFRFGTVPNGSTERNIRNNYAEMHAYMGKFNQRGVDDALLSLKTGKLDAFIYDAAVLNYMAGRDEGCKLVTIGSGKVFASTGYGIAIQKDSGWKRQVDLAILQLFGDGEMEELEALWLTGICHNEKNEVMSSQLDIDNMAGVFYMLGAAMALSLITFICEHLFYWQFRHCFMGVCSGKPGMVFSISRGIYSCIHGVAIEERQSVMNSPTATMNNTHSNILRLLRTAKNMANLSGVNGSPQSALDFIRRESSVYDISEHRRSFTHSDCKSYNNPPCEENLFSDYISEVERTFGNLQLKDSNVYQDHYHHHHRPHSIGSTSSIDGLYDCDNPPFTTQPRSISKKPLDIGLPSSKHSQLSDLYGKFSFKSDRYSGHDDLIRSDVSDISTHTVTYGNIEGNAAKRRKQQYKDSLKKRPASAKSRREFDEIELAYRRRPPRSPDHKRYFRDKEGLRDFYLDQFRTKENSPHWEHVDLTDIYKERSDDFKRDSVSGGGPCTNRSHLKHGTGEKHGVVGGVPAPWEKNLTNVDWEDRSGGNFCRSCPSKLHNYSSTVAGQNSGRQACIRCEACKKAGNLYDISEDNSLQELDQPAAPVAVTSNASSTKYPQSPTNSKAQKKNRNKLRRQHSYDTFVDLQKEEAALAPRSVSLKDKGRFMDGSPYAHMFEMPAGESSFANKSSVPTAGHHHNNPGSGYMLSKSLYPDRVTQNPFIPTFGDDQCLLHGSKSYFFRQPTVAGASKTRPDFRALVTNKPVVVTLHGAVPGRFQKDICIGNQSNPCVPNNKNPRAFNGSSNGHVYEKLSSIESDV
Excerpt: Preparation of RNA. cDNA clones encoding the NR1A, NR2A, NR2B, and NR2C rat NMDA receptor subtypes were used. (See Moriyoshi et al., Nature, (Lond.), 1991;354:31-37); Kutsuwada et al., Nature (Lond.), 1992;358:36-41; Monyer et al., Science (Washington, D.C.), 1992;256:1217-1221; Ikeda et al., FEBS Lett., 1992;313:34-38; Ishii et al., J. Biol. Chem., 1993;268:2836-2843 for details of these clones or their mouse homologs.) The clones were transformed into appropriate host bacteria, and plasmid preparations were made with conventional DNA purification techniques. A sample of each clone was linearized by restriction enzyme digestion […] was synthesized with T3 RNA polymerase. The cRNA was diluted to 400 ng/μL and stored in 1-μL aliquots at −80° C. until injection.
The Xenopus Oocyte Expression System. […]
Electrical recordings were made using a conventional two-electrode voltage clamp (Dagan TEV-200) over periods ranging between 3 to 21 days following injection (Woodward et al., Mol. Pharmacol., 1992;41:89-103). […] Inhibitory potency of the novel antagonists was assessed on responses elicited by fixed concentrations of glutamate and glycine, by measuring reductions in current induced by progressively increasing concentrations of antagonist. […]

[1] = biological target: T2, [3H]ifenprodil binding, adult rat forebrain membranes (NMDA receptor) (Rattus norvegicus, UniProt P35439+Q00960); assay: [3H]Ifenprodil binding assay; conditions: 4 nM [3H]-ifenprodil, 2 hours at room temperature, pH 7.4
T2 construct: membrane fraction was prepared from frozen adult rat forebrains; tissue Zivic-Miller Laboratories, Inc; host or cells: adult rat forebrain, buffy coat membrane fraction
T2 sequence (Q00960 27-1482, other chains not shown): as above
Description: All buffers and reagents used in assay incubations or to dissolve drugs were prepared using water purified through a Milli-Q reverse osmosis system (Millipore Corp, Bedford, Mass.) and treated with UV emissions. Prior to use in the assays, buffers were further filtered through a sterile Corning filtration unit (Corning Glass Works, Corning, N.Y.) containing a 0.2-μm filter. Buffer used to rinse the membranes on the assay filters was prepared with purified water, but was not refiltered and was stored no longer than 5 days. Stock solutions of the drugs (usually 10 mM) were dissolved in 20 mM HEPES-KOH buffer pH 7.4 (assay buffer) with the addition of 1 to 5 μL of glacial AcOH, if needed, to keep them in solution. For eliprodil the stock solution was buffer with the addition of 10% DMSO. All subsequent dilutions from stock were made in buffer.
An extensively washed buffy coat membrane fraction was prepared from frozen adult rat forebrains (Zivic-Miller Laboratories, Inc, Zelienople, Pa.) as described previously (Coughenour L. L.; Cordon, J. J., J. Pharmacol. Exp. Ther., 1997;280:584-592) and stored at −80° C. On the day of the assay, pellets were resuspended in 35 mL of assay buffer at pH 7.4 using a Polytron setting 6. After incubation at 37° C. for 30 minutes in a shaking water bath, the homogenate was centrifuged 40,000×g for 10 minutes at 4° C. The pellets were resuspended in fresh buffer and centrifuged 3 more times before final suspension for use in the assay.
[^3H]Ifenprodil Binding. […] The filter mat was supported on a cold (−20° C.) teflon support, and filters from individual wells were separated and placed in Mini Poly-Q vials (Beckman Instruments Inc, Fullerton, Calif.) and filled with 4 mL of scintillation cocktail (Beckman Ready Protein^+). Radioactivity retained on the filter was determined by liquid scintillation spectrophotometry. […]
Data Analysis. Binding curves were statistically analyzed for a best one- or two-site competition fit using GraphPad Prism software (GraphPad Software Inc, San Diego, Calif.). […]

Compound | melting point | pIC50 (NR1A/NR2B) | pIC50 [1]
C[C@H](N[C@H]1CC[C@@H](c2ccccc2)CC1)[C@@H](O)c1ccc(O)cc1 [Example 2b, cis-4-[(1S,2S)-1-Hydroxy-2-(4-phenylcyclohexylamino)propyl]phenol] |  | 6.82 | 7.35
CN(CCCc1ccc(O)cc1)[C@H]1CC[C@H](c2ccccc2)CC1 (as salt: HCl) [Example 4, trans-4-{3-[Methyl-(4-phenylcyclohexyl)amino]propyl}phenol] | 249 to 255 °C |  | 
C[C@H](N[C@H]1CC[C@H](c2ccccc2)CC1)[C@@H](O)c1ccc(O)cc1 [Example 2a, trans 4-[(1S,2S)-1-Hydroxy-2-(4-phenylcyclohexylamino)propyl]phenol] |  |  | 5.89
CN(CCc1ccc(O)cc1)[C@H]1CC[C@H](c2ccccc2)CC1 (as salt: HCl) [Example 6, trans 4-{2-[Methyl(4-phenylcyclohexyl)amino]ethyl}phenol] | 97 to 105 °C |  | 

The next lines start with results.

melting point | Compound | pIC50 (NR1A/NR2B) | pIC50 [1]
238 to 241 °C | Oc1ccc(CCN[C@H]2CC[C@H](c3ccccc3)CC2)cc1 (as salt: HCl) [Example 5, trans-4-[2-(4-Phenylcyclohexylamino)ethyl]phenol] |  | 
211 to 214 °C | Oc1ccc(CCCN[C@H]2CC[C@H](c3ccccc3)CC2)cc1 [Example 1b, trans4-[3-(4-Phenylcyclohexylamino)propyl]phenol] |  | 7.08
